Assay results reported in patent publication US20070219212A1, “Pyranouidole Derivatives and the Use Thereof for the Treatment of Hepatitis C Virus Infection or Disease” (priority 2004, published 2007).

Legend:
[1] = target: T1, NS5B from the BK strain (genotype 1b) (Hepatitis C virus genotype 1b, UniProt P26663); experiment: Hepatitis C polymerase (NS5B, BK strain) inhibition, radioactive filter assay; format: biochemical; settings: NS5B BK strain (genotype 1b)
T1 construct: NS5B from the BK strain (genotype 1b) is expressed in E coli as a protein in which the 21 C-terminal amino acids are replaced; made in house; host or cells: E. coli
Description: (§1) The ability of the compounds of the present invention to inhibit Hepatitis C Polymerase was established by the following experimental procedure:
NS5B from the BK strain (genotype 1b) is expressed in E coli as a protein in which the 21 C-terminal amino acids are replaced with a short linker and a hexahistidine tag ([…]). The purified protein is mixed with radioactive nucleotides and allowed to replicate a heteropolymeric RNA substrate, primed by an endogenous short hairpin, resulting in an approximately 760 nt product. The radioactive product is captured on a filter and quantitated after removal of the unincorporated nucleotides.
(§2) • 0.5M Na Phosphate buffer. Per liter, weigh 134 gr Na2HPO4.7H2O, add water to 900 ml. Adjust pH to 7.0 with phosphoric acid. Top off with water to 1 L. • Dilute nucleotides 1:1000 to 10 μM (GTP and CTP) or 1:100 to 100 μM (ATP and UTP) into RNase free water. Procedure: • (1) Compounds 10 μl at […] in 15% dimethylsulfoxide (DMSO) When starting from 100 μg/ml compound stock in 1% DMSO: Dispense 5 μl 30% DMSO per well Dispense 5 μl compound (100 μg/ml) per well. When starting from 50 μg/ml compound stock in 15% DMSO: Add 10 μl compound per well.
(§3) Add 20 μl enzyme mix into each well of the assay plate. Incubate compound and enzyme at room temperature for 15 minutes • (3) Template mix—prepare ahead
(§4) Spin down a tube of RNA (5 μg/tube stored in 75% ethanol and 0.3 M sodium acetate) in a microcentrifuge for 20 minutes at 4° C. One tube is enough for 1-1.5 plates. Remove as much ethanol from the tube as possible by inverting the tube. Be gentle, pellet RNA may not adhere to the tube. Vacuum dry the RNA. Resuspend the RNA by adding 1 ml of DEPC water, close the cap of the tube tightly. To dissolve RNA, incubate RNA solution on ice for ˜60 minutes and gently vortex. Spin briefly to ensure all RNA solution is down to the bottom of the tube before opening cap. Gently transfer RNA solution into a 5 ml or larger tube. Add another 3 ml of DEPC water (total 4 ml of volume).
(§5) Add the following volumes of reagents
(§6) Add 20 μl template mix per reaction (i.e. 20 ng of pOF per reaction or ˜3 nM) • (4) Incubate reaction at room temperature (22-25° C.) for 2 hours. • (5) Stop reaction by adding 50 μl of 170 mM EDTA.
(§7) Final concentration of EDTA is 85 mM. • (6) Prewet filters of Millipore multiscreen assay plate by adding 200 μl of 0.5 M sodium phosphate buffer, pH 7.0 into each well. Let stand at room temperature for 2-3 minutes. • (7) Place the multiscreen filter plate onto a Millipore Manifold and turn on vacuum to allow buffer to flow through. Turn off vacuum. Transfer 80 μl of the reaction product into each well of the filter plate. Let stand for 2-3 minutes. Turn on vacuum to filter reaction product. • (8) Turn off vacuum. Add 200 μl of 0.5 M sodium phosphate buffer, pH 7.0 into each well to wash filter. Turn on vacuum.
(§8) Repeat step (8) three more times. • (9) Remove polypropylene bottom. Spot dry filter at the bottom with paper towel. Air dry filter plate on a bench for 1 hour. Add 40 μl Super Mix scintillant. Seal top of the plate with a tape. Place plate into a Packard carrier or micro-beta carrier. • (10) Count plate using a Packard Topcount or micro-beta counter. Count (for example using Program 10) for ^33P in Top count or ^33P program in micro-beta.
(§9) See, Ferrari et al. 1999. J. Virology 73:1649-1654: “Characterization of soluble Hepatitis C virus RNA-dependent RNA polymerase expressed in E. coli and Takamizawa et al. 1991” and J. Virology 65:1105-1113: “Structure and characterization of the Hepatitis C virus genome isolated from human carriers,” both references are hereby incorporated by reference.

[2] = target: BB7 RNA-dependent RNA polymerase hepatitis C virus protein (Con1 HCV sequence) (Hepatitis C virus genotype 1b, UniProt Q9WMX2); experiment: Hepatitis C polymerase (BB7) inhibition; format: biochemical
Description: For purposes of this invention, the term “BB7” denotes an RNA-dependent RNA polymerase hepatitis C virus protein sequence which is derived from HCV replicon. A discussion of BB7 and related technology can be found in Blight, K. et al. (2000) Science 290:1972-1974. BB7 can be licensed from Apath, LLC (893 North Warson Road, Saint Louis Mo. 63141, USA). BB7 is also referred to as Con1 HCV sequence and discussions of Con1 can be found in the following references: Lohmann, V. et al. (1999) Science 285:110-113; Pietschmann, T. et al. (2001) J. Virol. […]:1252-1264; Lohmann, V. et al. (2001) J. Virol. 75:1437-1449.
as §1, §2, §3, §4, §5, §6, §7, §8, §9

Chain of BB7 RNA-dependent RNA polymerase hepatitis C virus protein (Con1 HCV sequence) (Q9WMX2 2420-3010): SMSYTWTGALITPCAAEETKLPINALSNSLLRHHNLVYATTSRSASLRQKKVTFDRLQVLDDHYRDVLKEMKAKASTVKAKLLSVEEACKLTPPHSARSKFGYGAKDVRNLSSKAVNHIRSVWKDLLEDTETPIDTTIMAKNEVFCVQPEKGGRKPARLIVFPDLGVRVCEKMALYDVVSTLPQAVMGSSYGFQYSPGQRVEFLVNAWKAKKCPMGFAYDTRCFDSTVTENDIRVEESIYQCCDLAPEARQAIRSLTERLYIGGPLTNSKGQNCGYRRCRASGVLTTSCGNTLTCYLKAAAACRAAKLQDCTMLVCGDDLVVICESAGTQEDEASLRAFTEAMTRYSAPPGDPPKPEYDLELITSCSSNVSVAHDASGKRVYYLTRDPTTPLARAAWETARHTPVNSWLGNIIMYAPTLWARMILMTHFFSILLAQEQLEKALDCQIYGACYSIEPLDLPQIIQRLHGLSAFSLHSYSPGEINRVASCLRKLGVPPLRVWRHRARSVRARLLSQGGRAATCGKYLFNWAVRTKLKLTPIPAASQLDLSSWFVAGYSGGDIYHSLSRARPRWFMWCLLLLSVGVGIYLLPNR
T1 sequence (P26663 2420-2989): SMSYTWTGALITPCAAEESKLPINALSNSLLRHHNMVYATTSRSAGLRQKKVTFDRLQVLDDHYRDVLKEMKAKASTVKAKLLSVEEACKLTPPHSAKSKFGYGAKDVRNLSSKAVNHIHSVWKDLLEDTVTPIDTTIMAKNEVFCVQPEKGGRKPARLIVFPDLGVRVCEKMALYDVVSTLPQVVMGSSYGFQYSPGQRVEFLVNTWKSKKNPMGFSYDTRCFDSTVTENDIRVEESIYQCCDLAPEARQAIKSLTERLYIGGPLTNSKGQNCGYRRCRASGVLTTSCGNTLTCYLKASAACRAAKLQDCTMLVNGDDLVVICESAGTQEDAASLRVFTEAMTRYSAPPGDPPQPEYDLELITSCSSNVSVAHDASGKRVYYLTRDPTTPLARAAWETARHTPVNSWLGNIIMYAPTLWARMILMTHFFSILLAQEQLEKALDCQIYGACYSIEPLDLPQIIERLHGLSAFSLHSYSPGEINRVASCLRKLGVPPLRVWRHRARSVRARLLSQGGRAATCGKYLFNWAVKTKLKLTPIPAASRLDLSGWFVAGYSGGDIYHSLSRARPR

SMILES | IC50 [1] [nM] | IC50 [2] [nM]
CCCC1(CC(=O)O)OCCc2c1[nH]c1c(C)c(CO[C@H]3CCOC3)cc(C#N)c21 (mixture of isomers) [Example 13, (3′S,1S*)[5-Cyano-8-methyl-1-propyl-7-(tetrahydro-furan-3-yloxymethyl)-1,3,4,9-tetrahydro-pyrano[3,4-b]indol-1-yl]-acetic acid] | 500 to 5000 | 500 to 5000
CCCC1(CC(=O)O)OCCc2c1[nH]c1c(C)c(CO[C@@H]3CCOC3)cc(C#N)c21 (mixture of isomers) [Example 14, (3′R,1S*)[5-Cyano-8-methyl-1-propyl-7-(tetrahydro-furan-3-yloxymethyl)-1,3,4,9-tetrahydro-pyrano[3,4-b]indol-1-yl]-acetic acid] | 500 to 5000 | 500 to 5000
CCOCCOc1cc(C#N)c2c3c([nH]c2c1C)C(CC(=O)O)([C@@H](C)CC)OCC3 (mixture of isomers) [Example 33, (1R*,10S)-[1-sec-Butyl-5-cyano-7-(2-ethoxy-ethoxy)-8-methyl-1,3,4,9-tetrahydro-pyrano[3,4-b]indol-1-yl]-acetic acid] | < 500 | < 500
CC[C@H](C)C1(CC(=O)O)OCCc2c1[nH]c1c(C)c(OCCOC(C)C)cc(C#N)c21 (mixture of isomers) [Example 34, (1R*,10S)-[1-sec-Butyl-5-cyano-7-(2-isopropoxy-ethoxy)-8-methyl-1,3,4,9-tetrahydro-pyrano[3,4-b]indol-1-yl]-acetic acid] | < 500 | < 500
CC[C@H](C)C1(CC(=O)O)OCCc2c1[nH]c1c(C)c(OCc3nsc(N(C)C)n3)cc(C#N)c21 (mixture of isomers) [Example 35, (1R*,10S)-[1-sec-Butyl-5-cyano-7-(5-dimethylamino-[1,2,4]thiadiazol-3-ylmethoxy)-8-methyl-1,3,4,9-tetrahydro-pyrano[3,4-b]indol-1-yl]-acetic acid] | < 500 | < 500
CCCC1(CC(=O)O)OCCc2c1[nH]c1c(C)c(CO)cc(C#N)c21 (stereo not shown) [Example 1, (5-Cyano-7-hydroxymethyl-8-methyl-1-propyl-1,3,4,9-tetrahydro-pyrano[3,4-b]indol-1-yl)-acetic acid] | < 500 | < 500
CCCC1(CC(=O)O)OCCc2c1[nH]c1c(C)c(COC)cc(C#N)c21 (stereo not shown) [Example 2, (5-Cyano-7-methoxymethyl-8-methyl-1-propyl-1,3,4,9-tetrahydro-pyrano[3,4-b]indol-1-yl)-acetic acid] | 500 to 5000 | < 500
CCCC1(CC(=O)O)OCCc2c1[nH]c1c(C)c(COCC)cc(C#N)c21 (stereo not shown) [Example 3, (5-Cyano-7-ethoxymethyl-8-methyl-1-propyl-1,3,4,9-tetrahydro-pyrano[3,4-b]indo-1-yl)-acetic acid] | 500 to 5000 | < 500
CCCOCc1cc(C#N)c2c3c([nH]c2c1C)C(CCC)(CC(=O)O)OCC3 (stereo not shown) [Example 4, (5-Cyano-8-methyl-7-propoxymethyl-1-propyl-1,3,4,9-tetrahydro-pyrano[3,4-b]indol-1-yl)-acetic acid] | 500 to 5000 | < 500
CCCC1(CC(=O)O)OCCc2c1[nH]c1c(C)c(COC(C)C)cc(C#N)c21 (stereo not shown) [Example 5, (5-Cyano-7-isopropoxymethyl-8-methyl-1-propyl-1,3,4,9-tetrahydro-pyrano[3,4-b]indol-1-yl)-acetic acid] | 500 to 5000 | < 500
CCCC1(CC(=O)O)OCCc2c1[nH]c1c(C)c(COC3CCC3)cc(C#N)c21 (stereo not shown) [Example 6, (5-Cyano-7-cyclobutoxymethyl-8-methyl-1-propyl-1,3,4,9-tetrahydro-pyrano[3,4-b]indol-1-yl)-acetic acid] | 500 to 5000 | < 500
CCCC1(CC(=O)O)OCCc2c1[nH]c1c(C)c(COC3CCCCC3)cc(C#N)c21 (stereo not shown) [Example 7, (5-Cyano-7-cyclohexyloxymethyl-8-methyl-1-propyl-1,3,4,9-tetrahydro-pyrano[3,4-b]indol-1-yl)-acetic acid] | 500 to 5000 | 500 to 5000
CCCC1(CC(=O)O)OCCc2c1[nH]c1c(C)c(COCC3CC3)cc(C#N)c21 (stereo not shown) [Example 8, (5-Cyano-7-cyclopropylmethoxymethyl-8-methyl-1-propyl-1,3,4,9-tetrahydro-pyrano[3,4-b]indol-1-yl)-acetic acid] | 500 to 5000 | < 500
CCCC1(CC(=O)O)OCCc2c1[nH]c1c(C)c(COCC3CCC3)cc(C#N)c21 (stereo not shown) [Example 9, (5-Cyano-7-cyclobutylmethoxymethyl-8-methyl-1-propyl-1,3,4,9-tetrahydro-pyrano[3,4-b]indol-1-yl)-acetic acid] | 500 to 5000 | 500 to 5000
CCCC1(CC(=O)O)OCCc2c1[nH]c1c(C)c(COCC3CCCC3)cc(C#N)c21 (stereo not shown) [Example 10, (5-Cyano-7-cyclopentylmethoxymethyl-8-methyl-1-propyl-1,3,4,9-tetrahydro-pyrano[3,4-b]indol-1-yl)-acetic acid] | 500 to 5000 | 500 to 5000
CC#CCOCc1cc(C#N)c2c3c([nH]c2c1C)C(CCC)(CC(=O)O)OCC3 (stereo not shown) [Example 11, (7-But-2-ynyloxymethyl-5-cyano-8-methyl-1-propyl-1,3,4,9-tetrahydro-pyrano[3,4-b]indol-1-yl)-acetic acid] | 500 to 5000 | 500 to 5000
CCCC1(CC(=O)O)OCCc2c1[nH]c1c(C)c(COCc3ccc4c(c3)OCO4)cc(C#N)c21 (stereo not shown) [Example 16, [7-(Benzo[1,3]dioxol-5-ylmethoxymethyl)-5-cyano-8-methyl-1-propyl-1,3,4,9-tetrahydro-pyrano[3,4-b]indol-1-yl]-acetic acid] | 500 to 5000 | < 500
CCCC1(CC(=O)O)OCCc2c1[nH]c1c(C)c(COCc3ccc(C)cc3C)cc(C#N)c21 (stereo not shown) [Example 17, [5-Cyano-7-(2,4-dimethyl-benzyloxymethyl)-8-methyl-1-propyl-1,3,4,9-tetrahydro-pyrano[3,4-b]indol-1-yl]-acetic acid] | 500 to 5000 | > 5000
CCCC1(CC(=O)O)OCCc2c1[nH]c1c(C)c(COCc3ccsc3)cc(C#N)c21 (stereo not shown) [Example 18, [5-Cyano-8-methyl-1-propyl-7-(thiophen-3-ylmethoxymethyl)-1,3,4,9-tetrahydro-pyrano[3,4-b]indol-1-yl]-acetic acid] | 500 to 5000 | < 500
CCCC1(CC(=O)O)OCCc2c1[nH]c1c(C)c(COCc3sc(C)nc3C)cc(C#N)c21 (stereo not shown) [Example 19, [5-Cyano-7-(2,4-dimethyl-thiazol-5-ylmethoxymethyl)-8-methyl-1-propyl-1,3,4,9-tetrahydro-pyrano[3,4-b]indol-1-yl]-acetic acid] | 500 to 5000 | 500 to 5000
